Tested on: patients with narcolepsy type 1 or type 2
Test: MWT, 12-week phase 3 study in narcolepsy
Assay type: in vivo, human
Description: The MWT is an objective test used to measure how alert a subject is during the day. The test consists of four sleep trials with two hours in between the trials. The first trial is performed 1.5-3 hours after the subject's normal wake-up time. Sensors are placed on the head, face, and chin to detect when the subject is asleep and awake during the test. The subject sits quietly in bed with his or her back and head supported by a pillow and is asked to sit still and look straight ahead while trying to stay awake as long as possible. Each trial lasts 40 minutes or until the subject is asleep for 90 seconds. Between trials, the subject stays out of bed and occupies himself or herself to remain awake. Falling asleep in an average of less than eight minutes is considered abnormal. About 40-60% of subjects with normal sleep stay awake for the entire 40 minutes of all four trials.
The study was a 12-week, double-blind, randomized, placebo-controlled, parallel-group study. Patients were randomized (1:1:1:1) to receive placebo or APC 75, 150, or 300 mg; randomization was stratified by the presence or absence of cataplexy.
Key inclusion criteria included adults 18-75 years old, inclusive, with a diagnosis of narcolepsy type 1 or type 2 according to ICSD-3 (American Academy of Sleep Medicine. The International Classification of Sleep Disorders—Third Edition (ICSD-3). Darien, IL: American Academy of Sleep Medicine; 2014) or DSM-5 (American Psychiatric Association. Diagnostic and Statistical Manual of Mental Disorders Fifth Edition (DSM-5). Arlington, VA: American Psychiatric Association; 2013) criteria, baseline mean sleep latency <25 minutes on the first 4 trials of a 5-trial, 40-minute Maintenance of Wakefulness Test (MWT) and baseline Epworth Sleepiness Scale (ESS) (Johns, Sleep 14(6):540 (1991)) score ≥10, usual nightly total sleep time ≥6 hours, and body mass index between 18 and 45 kg/m^2.
Co-primary endpoints were change from baseline to week 12 in MWT mean sleep latency and ESS score. The key secondary endpoint was the percentage of patients who reported improvement on the Patient Global Impression of Change (PGI-C) (Guy, ECDEU assessment manual for psychopharmacology, revised. US Department of Health, Education, and Welfare publication (ADM 76-338). Rockville, MD: National Institute of Mental Health; 1976) at week 12. Other secondary and exploratory endpoints included changes on function and quality-of-life and changes in the number of cataplexy attacks per week. Safety evaluation included adverse events, laboratory tests, and vital signs.
Efficacy analyses were based on the modified intent-to-treat population (mITT), defined as all patients who were randomized, received at least 1 dose of study drug, and had baseline and at least 1 post-baseline evaluation of both MWT and ESS. MWT and ESS were analyzed using a mixed-effect repeated measures (MMRM) model. PGI-C was analyzed using a chi-square test. A fixed hierarchical testing procedure was used to correct for multiplicity, starting with the highest dose of APC for the co-primary endpoints and the key secondary endpoint; testing proceeded with each subsequent lower doses.

[1] = Combined JZP-110, Week 12, mITT

NC(=O)OC[C@H](N)Cc1ccccc1 [JZP-110, (R)-2-amino-3-phenylpropyl carbamate]
MWT mean sleep latency increase from baseline >=15 minutes, n subjects (300 mg, Week 1, mITT): 11 | MWT mean sleep latency increase from baseline >=20 minutes, % of subjects (300 mg, Week 1, mITT): (32.0) % | MWT mean sleep latency increase from baseline >=20 minutes, n subjects (300 mg, Week 1, mITT): 8 | MWT mean sleep latency increase from baseline >=25 minutes, % of subjects (300 mg, Week 1, mITT): (24.0) % | MWT mean sleep latency increase from baseline >=25 minutes, n subjects (300 mg, Week 1, mITT): 6 | MWT mean sleep latency increase from baseline >=30 minutes, % of subjects (300 mg, Week 1, mITT): (20.0) % | MWT mean sleep latency increase from baseline >=30 minutes, n subjects (300 mg, Week 1, mITT): 5 | MWT mean sleep latency increase from baseline >=5 minutes, % of subjects (300 mg, Week 4, mITT): (69.2) % | MWT mean sleep latency increase from baseline >=5 minutes, n subjects (300 mg, Week 4, mITT): 36 | MWT mean sleep latency increase from baseline >=10 minutes, % of subjects (300 mg, Week 4, mITT): (53.8) % | MWT mean sleep latency increase from baseline >=10 minutes, n subjects (300 mg, Week 4, mITT): 28 | MWT mean sleep latency increase from baseline >=15 minutes, % of subjects (300 mg, Week 4, mITT): (36.5) % | MWT mean sleep latency increase from baseline >=15 minutes, n subjects (300 mg, Week 4, mITT): 19 | MWT mean sleep latency increase from baseline >=20 minutes, % of subjects (300 mg, Week 4, mITT): (25.0) % | MWT mean sleep latency increase from baseline >=20 minutes, n subjects (300 mg, Week 4, mITT): 13 | MWT mean sleep latency increase from baseline >=25 minutes, % of subjects (300 mg, Week 4, mITT): (17.3) % | MWT mean sleep latency increase from baseline >=25 minutes, n subjects (300 mg, Week 4, mITT): 9 | MWT mean sleep latency increase from baseline >=30 minutes, % of subjects (300 mg, Week 4, mITT): (13.5) % | MWT mean sleep latency increase from baseline >=30 minutes, n subjects (300 mg, Week 4, mITT): 7 | MWT mean sleep latency increase from baseline >=5 minutes, % of subjects (300 mg, Week 12, mITT): (60.0) % | MWT mean sleep latency increase from baseline >=5 minutes, n subjects (300 mg, Week 12, mITT): 24 | MWT mean sleep latency increase from baseline >=10 minutes, % of subjects (300 mg, Week 12, mITT): (50.0) % | MWT mean sleep latency increase from baseline >=10 minutes, n subjects (300 mg, Week 12, mITT): 20 | MWT mean sleep latency increase from baseline >=15 minutes, % of subjects (300 mg, Week 12, mITT): (37.5) % | MWT mean sleep latency increase from baseline >=15 minutes, n subjects (300 mg, Week 12, mITT): 15 | MWT mean sleep latency increase from baseline >=20 minutes, % of subjects (300 mg, Week 12, mITT): (27.5) % | MWT mean sleep latency increase from baseline >=20 minutes, n subjects (300 mg, Week 12, mITT): 11 | MWT mean sleep latency increase from baseline >=25 minutes, % of subjects (300 mg, Week 12, mITT): (15.0) % | MWT mean sleep latency increase from baseline >=25 minutes, n subjects (300 mg, Week 12, mITT): 6 | MWT mean sleep latency increase from baseline >=30 minutes, % of subjects (300 mg, Week 12, mITT): (7.5) % | MWT mean sleep latency increase from baseline >=30 minutes, n subjects (300 mg, Week 12, mITT): 3 | MWT mean sleep latency relative to placebo (150 and 300 mg, week 12, mITT): significantly increased MWT mean sleep latency relative to placebo | MWT mean sleep latency increase from baseline >=5 minutes, % of subjects (Combined JZP-110, Week 1, mITT): (53.9) % | MWT mean sleep latency increase from baseline >=5 minutes, n subjects (Combined JZP-110, Week 1, mITT): 41 | MWT mean sleep latency increase from baseline >=10 minutes, % of subjects (Combined JZP-110, Week 1, mITT): (42.1) % | MWT mean sleep latency increase from baseline >=10 minutes, n subjects (Combined JZP-110, Week 1, mITT): 32 | MWT mean sleep latency increase from baseline >=15 minutes, % of subjects (Combined JZP-110, Week 1, mITT): (27.6) % | MWT mean sleep latency increase from baseline >=15 minutes, n subjects (Combined JZP-110, Week 1, mITT): 21 | MWT mean sleep latency increase from baseline >=20 minutes, % of subjects (Combined JZP-110, Week 1, mITT): (17.1) % | MWT mean sleep latency increase from baseline >=20 minutes, n subjects (Combined JZP-110, Week 1, mITT): 13 | MWT mean sleep latency increase from baseline >=25 minutes, % of subjects (Combined JZP-110, Week 1, mITT): (9.2) % | MWT mean sleep latency increase from baseline >=25 minutes, n subjects (Combined JZP-110, Week 1, mITT): 7 | MWT mean sleep latency increase from baseline >=30 minutes, % of subjects (Combined JZP-110, Week 1, mITT): (6.6) % | MWT mean sleep latency increase from baseline >=30 minutes, n subjects (Combined JZP-110, Week 1, mITT): 5 | MWT mean sleep latency increase from baseline >=5 minutes, % of subjects (Combined JZP-110, Week 4, mITT): (57.6) % | MWT mean sleep latency increase from baseline >=5 minutes, n subjects (Combined JZP-110, Week 4, mITT): 87 | MWT mean sleep latency increase from baseline >=10 minutes, % of subjects (Combined JZP-110, Week 4, mITT): (40.4) % | MWT mean sleep latency increase from baseline >=10 minutes, n subjects (Combined JZP-110, Week 4, mITT): 61 | MWT mean sleep latency increase from baseline >=15 minutes, % of subjects (Combined JZP-110, Week 4, mITT): (26.5) % | MWT mean sleep latency increase from baseline >=15 minutes, n subjects (Combined JZP-110, Week 4, mITT): 40 | MWT mean sleep latency increase from baseline >=20 minutes, % of subjects (Combined JZP-110, Week 4, mITT): (15.9) % | MWT mean sleep latency increase from baseline >=20 minutes, n subjects (Combined JZP-110, Week 4, mITT): 24 | MWT mean sleep latency increase from baseline >=25 minutes, % of subjects (Combined JZP-110, Week 4, mITT): (9.3) % | MWT mean sleep latency increase from baseline >=25 minutes, n subjects (Combined JZP-110, Week 4, mITT): 14 | MWT mean sleep latency increase from baseline >=30 minutes, % of subjects (Combined JZP-110, Week 4, mITT): (4.6) % | MWT mean sleep latency increase from baseline >=30 minutes, n subjects (Combined JZP-110, Week 4, mITT): 7 | MWT mean sleep latency increase from baseline >=5 minutes, % of subjects [1]: (52.9) % | MWT mean sleep latency increase from baseline >=5 minutes, n subjects [1]: 72 | MWT mean sleep latency increase from baseline >=10 minutes, % of subjects [1]: (39.0) % | MWT mean sleep latency increase from baseline >=10 minutes, n subjects [1]: 53 | MWT mean sleep latency increase from baseline >=15 minutes, % of subjects [1]: (29.4) % | MWT mean sleep latency increase from baseline >=15 minutes, n subjects [1]: 40 | MWT mean sleep latency increase from baseline >=20 minutes, % of subjects [1]: (17.6) % | MWT mean sleep latency increase from baseline >=20 minutes, n subjects [1]: 24 | MWT mean sleep latency increase from baseline >=25 minutes, % of subjects [1]: (8.1) % | MWT mean sleep latency increase from baseline >=25 minutes, n subjects [1]: 11 | MWT mean sleep latency increase from baseline >=30 minutes, % of subjects [1]: (2.9) % | MWT mean sleep latency increase from baseline >=30 minutes, n subjects [1]: 4 | MWT mean sleep latency, effect at week 1 (all doses, as early as week 1): Statistically significant effects | Tolerance to the wake-promoting effects (over the 12 weeks of the study): no apparent tolerance to the wake-promoting effects
